Test results as given in US20240009231A1, “Method for Pleurodesis and Delivery of Drugs to the Lung and Pleural Space” (University of Cincinnati, priority 2020, published 2024).

Assays:
C57BL/6J mice = settings: mouse, in vivo
Procedure: Either hydroxyapatite microspheres (HAMs, Fluidinova) or talc was injected via the intrapleural (i.pl.) route into C57BL/6J mice. For the mice injected with HAMs, 4 mg/g mouse of HAM/300 μL saline/mice was used. For the mice injected with talc, 2 mg/g mouse of talc/300 μL saline/mice was used. The mice were euthanized at day 0, day 7, day 14 or day 28 and post-mortem assessments were performed. Effectiveness of pleurodesis was assessed by introducing air into the pleural space. Each lung was punctured percutaneously with a 20 G needle for 12 times for left and right lung (total 24 times) (transthoracic needle puncture). Then, a CT scan was taken to measure the volume of pneumothorax air space in the thoracic cavity (see FIGS. 1A and 1B).
In addition, paraffin-embedded lung sections were stained with H&E and Mason's trichrome reagent for microscopic evaluation of pleural fibrosis and pleural thickness. Clearance of particles was assessed by microCT (see FIGS. 2A and 2B). Macroscopic pleural adhesions were scored (see FIGS. 3A, 3B and 3C); pleural lavage cells were collected to assess OLMNGC (osteoclast-like multinucleated giant cells) formation, including cytology, fibrosis- and osteoclast-related gene and protein expression of tartrate-resistant acid phosphatase (TRAP), (CTSK), and calcitonin receptor (Calcr) antibody by rtPCR and immunohistochemistry

lungs of mice = settings: mouse, in vivo

hydroxyapatite [HAMs]
amount of residual particles in the thoracic cavity (C57BL/6J mice): decreased over time | clearance of particles (C57BL/6J mice): almost completely cleared | lung inflammation (lungs of mice): transient monocyte rich inflammation | pulmonary fibrosis (lungs of mice): no residual fibrosis | clearance of particles from the lungs (lungs of mice; inhaled or intranasal): cleared within a month
